# Test system: patients with advanced solid tumors
# Assay: Treatment-related adverse events (CTCAE v5.0), phase I dose escalation
# Assay type: in vivo
# Text: This study was a single‐arm, dose‐escalation phase I trial conducted in Sun Yat‐sen University Cancer Center in China. This study assessed CVL218 in patients with histologically or cytologically confirmed advanced solid tumors who were in PD after standard therapeutic regimens or lacked standard treatment options. Inclusion criteria included: age 18–75 years; with at least one measurable and evaluable target lesion per Response Evaluation Criteria in Solid Tumors 1.1 (RECIST 1.1); ECOG performance status of 0 or 1; adequate hematological, renal, cardiac, and hepatic functions and a life expectancy ≥12 weeks. Key exclusion criteria included prior usage of PARP inhibitors; allergic to the research drug or its components; with active, unstable systemic diseases or active, uncontrolled infection; a history of other malignancies within 5 years, and pregnant or lactating women.
# CVL218 was administered orally, and this dose‐escalation trial included nine dose levels: 100 mg QD (50 mg BID), 200 mg QD (100 mg BID), 400 mg QD (200 mg BID), 700 mg QD (350 mg BID), 1000 mg QD (500 mg BID), 1200 mg QD (600 mg BID), 1400 mg QD (700 mg BID), 1700 mg QD (850 mg BID), and 2000 mg QD (1000 mg BID). Patients enrolled in the study received a single oral dose on the first day, followed by continuous multiple dosing (twice a day taking 12 h apart) after 72 h, with the treatment cycle lasting 4 weeks. The period during which patients received a single dose is designated as cycle 0 (C0), lasting 72 h. After this period, patients begin multiple dosing, referred to as cycle 1 (C1). An initial accelerated titration design was employed for the three lowest dose groups, and the “3+3” design was applied starting with the 300 mg BID cohort.
# The primary objectives were to assess safety and tolerability as well as to determine the MTD, DLT, and dose recommended for further study. DLT was defined as any of the following events occurring during cycle 0 (including 72 h wash‐out period after a single dose) and cycle 1 per Common Terminology Criteria for Adverse Events (CTCAE) version 5.0: grade 4 anemia; grade 4 neutropenia; grade 3 neutropenia with fever ≥38.5°C; grade 4 thrombocytopenia; grade 3 thrombocytopenia associated with bleeding; grade ≥2 neurotoxicity; any other grade ≥3 nonhematological toxicities (excluding alopecia). The secondary objectives were to assess the PK and preliminary efficacy of CVL218.
# Subjects who received at least one dose of CVL218 with postadministration safety records were included in safety analysis set. Subjects who received at least one dose of CVL218 with at least one evaluable PK parameter were included in PK analysis set. Per‐protocol set were used for efficacy analysis. Descriptive statistics of safety were presented per CTCAE v5.0. The PK parameters T max and T 1/2 were shown as the median (min, max) and mean ± SD, respectively. A two‐sided p < 0.05 was considered to indicate statistical significance. Statistical analysis was performed by using GraphPad prism 8.0.2 and R‐4.3.3.
compound,measurement,setting,value
CNCc1ccc(-c2cc3cc(F)cc(C(N)=O)c3o2)cc1.Cl [CVL218],Headache,"200 mg BID, ≥G3",0 n (%)
same,Hypoalbuminemia,"200 mg BID, ≥G3",0 n (%)
same,Infusion site pain,"200 mg BID, ≥G3",0 n (%)
same,Laboratory test disorders,"200 mg BID, ≥G3",0 n (%)
same,Limb discomfort,"200 mg BID, ≥G3",0 n (%)
same,Lipase increased,"200 mg BID, ≥G3",0 n (%)
same,Metabolic disorders,"200 mg BID, ≥G3",0 n (%)
same,Musculoskeletal discomfort,"200 mg BID, ≥G3",0 n (%)
same,Musculoskeletal disorders,"200 mg BID, ≥G3",0 n (%)
same,Nausea,"200 mg BID, ≥G3",0 n (%)
same,Nervous system disorders,"200 mg BID, ≥G3",0 n (%)
same,Neutrophil count decreased,"200 mg BID, ≥G3",0 n (%)
same,Neutrophil count increased,"200 mg BID, ≥G3",0 n (%)
same,Palpitations,"200 mg BID, ≥G3",0 n (%)
same,Protein urine present,"200 mg BID, ≥G3",0 n (%)
same,Proteinuria,"200 mg BID, ≥G3",0 n (%)
same,Rash,"200 mg BID, ≥G3",0 n (%)
same,Renal & urinary disorders,"200 mg BID, ≥G3",0 n (%)
same,Renal failure,"200 mg BID, ≥G3",0 n (%)
same,Reproductive disorders,"200 mg BID, ≥G3",0 n (%)
same,Skin disorders,"200 mg BID, ≥G3",0 n (%)
same,Urinary occult blood positive,"200 mg BID, ≥G3",0 n (%)
same,Vomiting,"200 mg BID, ≥G3",0 n (%)
same,WBC count decreased,"200 mg BID, ≥G3",0 n (%)
same,WBC count increased,"200 mg BID, ≥G3",0 n (%)
same,Infusion site pain,"350 mg BID, ALL",0 n (%)
same,WBC count increased,"350 mg BID, ALL",0 n (%)
same,ALT increased,"350 mg BID, ≥G3",0 n (%)
same,AST increased,"350 mg BID, ≥G3",0 n (%)
same,Abdominal distension,"350 mg BID, ≥G3",0 n (%)
same,Abdominal pain,"350 mg BID, ≥G3",0 n (%)
same,Abdominal pain upper,"350 mg BID, ≥G3",0 n (%)
same,Amylase increased,"350 mg BID, ≥G3",0 n (%)
same,Anemia,"350 mg BID, ≥G3",0 n (%)
same,Any AE related to study drug,"350 mg BID, ≥G3",0 n (%)
same,Asthenia,"350 mg BID, ≥G3",0 n (%)
same,Blood creatinine increased,"350 mg BID, ≥G3",0 n (%)
same,Blood system disorders,"350 mg BID, ≥G3",0 n (%)
same,Blood triglycerides increased,"350 mg BID, ≥G3",0 n (%)
same,Blood urea increased,"350 mg BID, ≥G3",0 n (%)
same,Cardiac disorders,"350 mg BID, ≥G3",0 n (%)
same,Chest discomfort,"350 mg BID, ≥G3",0 n (%)
same,Constipation,"350 mg BID, ≥G3",0 n (%)
same,Decreased appetite,"350 mg BID, ≥G3",0 n (%)
same,Diarrhea,"350 mg BID, ≥G3",0 n (%)
same,Dizziness,"350 mg BID, ≥G3",0 n (%)
same,Erectile dysfunction,"350 mg BID, ≥G3",0 n (%)
same,Gastrointestinal disorders,"350 mg BID, ≥G3",0 n (%)
same,General disorders,"350 mg BID, ≥G3",0 n (%)
same,Gingival bleeding,"350 mg BID, ≥G3",0 n (%)
same,Granulocyte count increased,"350 mg BID, ≥G3",0 n (%)
same,Headache,"350 mg BID, ≥G3",0 n (%)
same,Hypoalbuminemia,"350 mg BID, ≥G3",0 n (%)
same,Infusion site pain,"350 mg BID, ≥G3",0 n (%)
same,Laboratory test disorders,"350 mg BID, ≥G3",0 n (%)
same,Limb discomfort,"350 mg BID, ≥G3",0 n (%)
same,Lipase increased,"350 mg BID, ≥G3",0 n (%)
same,Metabolic disorders,"350 mg BID, ≥G3",0 n (%)
same,Musculoskeletal discomfort,"350 mg BID, ≥G3",0 n (%)
same,Musculoskeletal disorders,"350 mg BID, ≥G3",0 n (%)
same,Nausea,"350 mg BID, ≥G3",0 n (%)
same,Nervous system disorders,"350 mg BID, ≥G3",0 n (%)
same,Neutrophil count decreased,"350 mg BID, ≥G3",0 n (%)
same,Neutrophil count increased,"350 mg BID, ≥G3",0 n (%)
same,Palpitations,"350 mg BID, ≥G3",0 n (%)
same,Protein urine present,"350 mg BID, ≥G3",0 n (%)
same,Proteinuria,"350 mg BID, ≥G3",0 n (%)
same,Rash,"350 mg BID, ≥G3",0 n (%)
same,Renal & urinary disorders,"350 mg BID, ≥G3",0 n (%)
same,Renal failure,"350 mg BID, ≥G3",0 n (%)
same,Reproductive disorders,"350 mg BID, ≥G3",0 n (%)
same,Skin disorders,"350 mg BID, ≥G3",0 n (%)
same,Urinary occult blood positive,"350 mg BID, ≥G3",0 n (%)
same,Vomiting,"350 mg BID, ≥G3",0 n (%)
same,WBC count decreased,"350 mg BID, ≥G3",0 n (%)
same,WBC count increased,"350 mg BID, ≥G3",0 n (%)
same,Infusion site pain,"500 mg BID, ALL",0 n (%)
same,WBC count increased,"500 mg BID, ALL",1 (25) n (%)
same,ALT increased,"500 mg BID, ≥G3",0 n (%)
same,AST increased,"500 mg BID, ≥G3",0 n (%)
same,Abdominal distension,"500 mg BID, ≥G3",0 n (%)
same,Abdominal pain,"500 mg BID, ≥G3",0 n (%)
same,Abdominal pain upper,"500 mg BID, ≥G3",0 n (%)
same,Amylase increased,"500 mg BID, ≥G3",0 n (%)
same,Anemia,"500 mg BID, ≥G3",0 n (%)
same,Any AE related to study drug,"500 mg BID, ≥G3",1 (25.0) n (%)
same,Asthenia,"500 mg BID, ≥G3",0 n (%)
same,Blood creatinine increased,"500 mg BID, ≥G3",0 n (%)
same,Blood system disorders,"500 mg BID, ≥G3",0 n (%)
same,Blood triglycerides increased,"500 mg BID, ≥G3",0 n (%)
same,Blood urea increased,"500 mg BID, ≥G3",0 n (%)
same,Cardiac disorders,"500 mg BID, ≥G3",0 n (%)
same,Chest discomfort,"500 mg BID, ≥G3",0 n (%)
same,Constipation,"500 mg BID, ≥G3",0 n (%)
same,Decreased appetite,"500 mg BID, ≥G3",0 n (%)
same,Diarrhea,"500 mg BID, ≥G3",0 n (%)
same,Dizziness,"500 mg BID, ≥G3",0 n (%)
same,Erectile dysfunction,"500 mg BID, ≥G3",0 n (%)
same,Gastrointestinal disorders,"500 mg BID, ≥G3",0 n (%)
same,General disorders,"500 mg BID, ≥G3",0 n (%)
same,Gingival bleeding,"500 mg BID, ≥G3",0 n (%)
same,Granulocyte count increased,"500 mg BID, ≥G3",0 n (%)
same,Headache,"500 mg BID, ≥G3",0 n (%)
same,Hypoalbuminemia,"500 mg BID, ≥G3",0 n (%)
same,Infusion site pain,"500 mg BID, ≥G3",0 n (%)
same,Limb discomfort,"500 mg BID, ≥G3",0 n (%)
same,Metabolic disorders,"500 mg BID, ≥G3",0 n (%)
same,Musculoskeletal discomfort,"500 mg BID, ≥G3",0 n (%)
same,Musculoskeletal disorders,"500 mg BID, ≥G3",0 n (%)
same,Nausea,"500 mg BID, ≥G3",0 n (%)
same,Nervous system disorders,"500 mg BID, ≥G3",0 n (%)
same,Neutrophil count decreased,"500 mg BID, ≥G3",0 n (%)
same,Neutrophil count increased,"500 mg BID, ≥G3",0 n (%)
same,Palpitations,"500 mg BID, ≥G3",0 n (%)
same,Protein urine present,"500 mg BID, ≥G3",0 n (%)
same,Proteinuria,"500 mg BID, ≥G3",0 n (%)
same,Rash,"500 mg BID, ≥G3",0 n (%)
same,Renal & urinary disorders,"500 mg BID, ≥G3",0 n (%)
same,Renal failure,"500 mg BID, ≥G3",0 n (%)
same,Reproductive disorders,"500 mg BID, ≥G3",0 n (%)
same,Skin disorders,"500 mg BID, ≥G3",0 n (%)
same,Urinary occult blood positive,"500 mg BID, ≥G3",0 n (%)
same,Vomiting,"500 mg BID, ≥G3",0 n (%)
same,WBC count decreased,"500 mg BID, ≥G3",0 n (%)
same,WBC count increased,"500 mg BID, ≥G3",0 n (%)
same,Infusion site pain,"600 mg BID, ALL",0 n (%)
same,WBC count increased,"600 mg BID, ALL",0 n (%)
same,ALT increased,"600 mg BID, ≥G3",0 n (%)
same,AST increased,"600 mg BID, ≥G3",0 n (%)

# Source: PMC12238723, “Phase I Clinical Trial of CVL218, a Novel PARP1/2 Inhibitor, in Patients with Advanced Solid Tumors” (MedComm, 2025)
